ChEMBL document CHEMBL3046898, “Synthesis and characterization of flurbiprofen hydrazide derivatives as potential anti-HCV, anticancer and antimicrobial agents” (2013)
The source made the active and inactive calls. The calls are words filed in the database; no cut-off is given here.

Legend:
Staphylococcus cohnii [1] = assay: Antibacterial activity against Staphylococcus cohnii at 10 mg/ml after 24 hrs by disc diffusion method; assay type: functional
Staphylococcus aureus [2] = assay: Antibacterial activity against Staphylococcus aureus at 10 mg/ml after 24 hrs by disc diffusion method; assay type: functional
Hepacivirus hominis = assay: Inhibition of HCV N-terminal His-tagged NS5B RNA dependent RNA polymerase expressed in Escherichia coli DH5alpha using poly rA/U12 as primer at 200 uM after 60 mins by liquid scintillation counting
Klebsiella aerogenes [3] = assay: Antibacterial activity against Enterobacter aerogenes at 6.25 to 200 ug/ml after 24 hrs by microwell dilution method; assay type: functional, organism-based
Klebsiella aerogenes [4] = assay: Antibacterial activity against Enterobacter aerogenes at 10 mg/ml after 24 hrs by disc diffusion method; assay type: functional, organism-based
Escherichia coli [5] = assay: Antibacterial activity against Escherichia coli at 10 mg/ml after 24 hrs by disc diffusion method; assay type: functional, organism-based
Photorhabdus luminescens [6] = assay: Antibacterial activity against Photorhabdus luminescens at 10 mg/ml after 24 hrs by disc diffusion method; assay type: functional, organism-based
Staphylococcus cohnii [7] = assay: Antibacterial activity against Staphylococcus cohnii at 6.25 to 200 ug/ml after 24 hrs by microwell dilution assay; assay type: functional, organism-based
Staphylococcus aureus [8] = assay: Antibacterial activity against Staphylococcus aureus at 6.25 to 200 ug/ml after 24 hrs by microwell dilution assay; assay type: functional, organism-based
Kluyveromyces marxianus = assay: Antifungal activity against Kluyveromyces marxianus at 10 mg/ml after 48 hrs by disc diffusion method; assay type: functional, organism-based
Proteus vulgaris [9] = assay: Antibacterial activity against Proteus vulgaris at 10 mg/ml after 24 hrs by disc diffusion method; assay type: functional, organism-based
Salmonella paratyphi [10] = assay: Antibacterial activity against Salmonella paratyphi at 10 mg/ml after 24 hrs by disc diffusion method; assay type: functional, organism-based; settings: Salmonella enterica subsp. enterica serovar Paratyphi A
Pseudomonas aeruginosa [11] = assay: Antibacterial activity against Pseudomonas aeruginosa at 6.25 to 200 ug/ml after 24 hrs by microwell dilution method; assay type: functional, organism-based
Candida parapsilosis = assay: Antifungal activity against Candida parapsilosis at 10 mg/ml after 48 hrs by disc diffusion method; assay type: functional, organism-based
[12] = system: Acinetobacter radioresistens; assay: Antibacterial activity against Acinetobacter radioresistens at 10 mg/ml after 24 hrs by disc diffusion method; assay type: functional, organism-based
Aspergillus = assay: Antifungal activity against Aspergillus at 10 mg/ml after 72 hrs by disc diffusion method; assay type: functional, organism-based
Micrococcus lylae [13] = assay: Antibacterial activity against Micrococcus lylae at 6.25 to 200 ug/ml after 24 hrs by microwell dilution method; assay type: functional, organism-based
Micrococcus lylae [14] = assay: Antibacterial activity against Micrococcus lylae at 10 mg/ml after 24 hrs by disc diffusion method; assay type: functional, organism-based
T47D = assay: Cytotoxicity against human T47D assessed as cell growth at 10 uM after 48 hrs by SRB assay; assay type: functional; settings: read-out: Activity
Micrococcus luteus [15] = assay: Antibacterial activity against Micrococcus luteus at 10 mg/ml after 24 hrs by disc diffusion method; assay type: functional, organism-based
Candida tropicalis = assay: Antifungal activity against Candida tropicalis at 10 mg/ml after 48 hrs by disc diffusion method; assay type: functional, organism-based
Nakaseomyces glabratus = assay: Antifungal activity against Candida glabrata at 10 mg/ml after 48 hrs by disc diffusion method; assay type: functional, organism-based
Pseudomonas aeruginosa [16] = assay: Antibacterial activity against Pseudomonas aeruginosa at 10 mg/ml after 24 hrs by disc diffusion method; assay type: functional, organism-based
[17] = system: Schwanniomyces occidentalis; assay: Antifungal activity against Schwanniomyces occidentalis at 10 mg/ml after 48 hrs by disc diffusion method; assay type: functional, organism-based
Photorhabdus luminescens [18] = assay: Antibacterial activity against Photorhabdus luminescens at 6.25 to 200 ug/ml after 24 hrs by microwell dilution method; assay type: functional, organism-based
Micrococcus luteus [19] = assay: Antibacterial activity against Micrococcus luteus at 6.25 to 200 ug/ml after 24 hrs by microwell dilution method; assay type: functional, organism-based
MDA-MB-468 = assay: Cytotoxicity against human MDA-MB-468 assessed as cell growth at 10 uM after 48 hrs by SRB assay; assay type: functional; settings: MDA-MB-468, 48 h, read-out: Activity
Candida albicans = assay: Antifungal activity against Candida albicans at 10 mg/ml after 48 hrs by disc diffusion method; assay type: functional, organism-based
[20] = system: Acinetobacter radioresistens; assay: Antibacterial activity against Acinetobacter radioresistens at 6.25 to 200 ug/ml after 24 hrs by microwell dilution method; assay type: functional, organism-based
Escherichia coli [21] = assay: Antibacterial activity against Escherichia coli at 6.25 to 200 ug/ml after 24 hrs by microwell dilution method; assay type: functional, organism-based
Proteus vulgaris [22] = assay: Antibacterial activity against Proteus vulgaris at 6.25 to 200 ug/ml after 24 hrs by microwell dilution method; assay type: functional, organism-based
Pichia membranifaciens = assay: Antifungal activity against Pichia membranifaciens at 10 mg/ml after 48 hrs by disc diffusion method; assay type: functional, organism-based
Salmonella paratyphi [23] = assay: Antibacterial activity against Salmonella paratyphi at 6.25 to 200 ug/ml after 24 hrs by microwell dilution method; assay type: functional, organism-based; settings: Salmonella enterica subsp. enterica serovar Paratyphi A
SR = assay: Cytotoxicity against human SR assessed as cell growth at 10 uM after 48 hrs by SRB assay; assay type: functional; settings: read-out: Activity
Staphylococcus cohnii [24] = assay: Antibacterial activity against Staphylococcus cohnii at 100 to 200 ug/ml after 24 hrs by microwell dilution assay; assay type: functional, organism-based
Micrococcus luteus [25] = assay: Antibacterial activity against Micrococcus luteus at 100 to 200 ug/ml after 24 hrs by microwell dilution assay; assay type: functional, organism-based
Staphylococcus aureus [26] = assay: Antibacterial activity against Staphylococcus aureus at 100 to 200 ug/ml after 24 hrs by microwell dilution assay; assay type: functional, organism-based
PC-3 = assay: Cytotoxicity against human PC3 assessed as cell growth at 10 uM after 48 hrs by SRB assay; assay type: functional; settings: PC-3, 48 h, read-out: Activity
CAKI-1 = assay: Cytotoxicity against human Caki1 assessed as cell growth at 10 uM after 48 hrs by SRB assay; assay type: functional; settings: CAKI-1, 48 h, read-out: Activity
Staphylococcus cohnii [27] = assay: Antibacterial activity against Staphylococcus cohnii at 200 ug/disc after 24 hrs by disc diffusion method; assay type: functional, organism-based
Staphylococcus aureus [28] = assay: Antibacterial activity against Staphylococcus aureus at 200 ug/disc after 24 hrs by disc diffusion method; assay type: functional, organism-based

Row | SMILES | Activity (Staphylococcus cohnii [1]) | Activity (Staphylococcus aureus [2]) | inhibition (Hepacivirus hominis) [%] | Activity (Klebsiella aerogenes [3]) | Activity (Klebsiella aerogenes [4]) | Activity (Escherichia coli [5]) | Activity (Photorhabdus luminescens [6]) | Activity (Staphylococcus cohnii [7]) | Activity (Staphylococcus aureus [8]) | Activity (Kluyveromyces marxianus) | Activity (Proteus vulgaris [9]) | Activity (Salmonella paratyphi [10]) | Activity (Pseudomonas aeruginosa [11]) | Activity (Candida parapsilosis) | Activity [12] | Activity (Aspergillus) | Activity (Micrococcus lylae [13]) | Activity (Micrococcus lylae [14]) | growth at 10 µM (T47D) [%] | Activity (Micrococcus luteus [15]) | further results
1 | CCN1C(=O)CS/C1=N\NC(=O)C(C)c1ccc(-c2ccccc2)c(F)c1 (centres undefined) | inactive | inactive | 8 | inactive | inactive | inactive | inactive | inactive | inactive | inactive | inactive | inactive | inactive | inactive | inactive | inactive | inactive | inactive | 55.2 | inactive | Activity (Candida tropicalis): inactive; Activity (Nakaseomyces glabratus): inactive; Activity (Pseudomonas aeruginosa [16]): inactive; Activity [17]: inactive; Activity (Photorhabdus luminescens [18]): inactive; Activity (Micrococcus luteus [19]): inactive; growth at 10 µM (MDA-MB-468): 43.6%; Activity (Candida albicans): inactive; Activity [20]: inactive; Activity (Escherichia coli [21]): inactive; Activity (Proteus vulgaris [22]): inactive; Activity (Pichia membranifaciens): inactive; Activity (Salmonella paratyphi [23]): inactive
2 | COc1ccc(/C=N/NC(=O)C(C)c2ccc(-c3ccccc3)c(F)c2)cc1 (centres undefined) | inactive | inactive | 8 | inactive | inactive | inactive | inactive | inactive | inactive | inactive | inactive | inactive | inactive | inactive | inactive | inactive | inactive | inactive | 57.4 | inactive | growth at 10 µM (SR): 46%; Activity (Candida tropicalis): inactive; Activity (Nakaseomyces glabratus): inactive; Activity (Pseudomonas aeruginosa [16]): inactive; Activity [17]: inactive; Activity (Photorhabdus luminescens [18]): inactive; Activity (Micrococcus luteus [19]): inactive; Activity (Candida albicans): inactive; Activity [20]: inactive; Activity (Escherichia coli [21]): inactive; Activity (Proteus vulgaris [22]): inactive; Activity (Pichia membranifaciens): inactive; Activity (Salmonella paratyphi [23]): inactive
3 | CC(C(=O)N/N=C/c1c(F)cccc1F)c1ccc(-c2ccccc2)c(F)c1 (centres undefined) | inactive | inactive | 8 | inactive | inactive | inactive | inactive | inactive | inactive | inactive | inactive | inactive | inactive | inactive | inactive | inactive | inactive | inactive | 55.3 | inactive | Activity (Candida tropicalis): inactive; Activity (Nakaseomyces glabratus): inactive; Activity (Pseudomonas aeruginosa [16]): inactive; Activity [17]: inactive; Activity (Photorhabdus luminescens [18]): inactive; Activity (Micrococcus luteus [19]): inactive; Activity (Candida albicans): inactive; Activity [20]: inactive; Activity (Escherichia coli [21]): inactive; Activity (Proteus vulgaris [22]): inactive; Activity (Pichia membranifaciens): inactive; Activity (Salmonella paratyphi [23]): inactive
4 | CC(C(=O)NN1C(=O)CSC1c1ccc([N+](=O)[O-])o1)c1ccc(-c2ccccc2)c(F)c1 (centres undefined) |  |  | 8 |  |  |  |  |  |  |  |  |  |  |  |  |  |  |  |  |  | zone of inhibition at 10000 µg/mL (Staphylococcus cohnii [1]; read-out: DIZ): 10 mm; zone of inhibition at 10000 µg/mL (Staphylococcus aureus [2]; read-out: DIZ): 10 mm; Activity (Staphylococcus cohnii [24]): Active; Activity (Micrococcus luteus [25]): Active; Activity (Staphylococcus aureus [26]): Active
5 | CC(C(=O)NN1C(=O)CSC1c1ccc(Cl)cc1)c1ccc(-c2ccccc2)c(F)c1 (centres undefined) |  |  | 8 |  |  |  |  |  |  |  |  |  |  |  |  |  |  |  | 50.9 |  | growth at 10 µM (PC-3): 49.2%; Activity (Staphylococcus cohnii [24]): Active; Activity (Micrococcus luteus [25]): Active; growth at 10 µM (CAKI-1): 29.6%; Activity (Staphylococcus aureus [26]): Active
6 | CC1(C)S[C@@H]2[C@H](NC(=O)[C@H](N)c3ccccc3)C(=O)N2[C@H]1C(=O)O |  |  |  |  |  |  |  |  |  |  |  |  |  |  |  |  |  |  |  |  | Activity (Staphylococcus cohnii [27]): inactive; Activity (Staphylococcus aureus [28]): inactive
7 | CC(C(=O)N/N=C/c1cccc(F)c1)c1ccc(-c2ccccc2)c(F)c1 (centres undefined) | inactive | inactive | 8 | inactive | inactive | inactive | inactive | inactive | inactive | inactive | inactive | inactive | inactive | inactive | inactive | inactive | inactive | inactive |  | inactive | Activity (Candida tropicalis): inactive; Activity (Nakaseomyces glabratus): inactive; Activity (Pseudomonas aeruginosa [16]): inactive; Activity [17]: inactive; Activity (Photorhabdus luminescens [18]): inactive; Activity (Micrococcus luteus [19]): inactive; Activity (Candida albicans): inactive; Activity [20]: inactive; Activity (Escherichia coli [21]): inactive; Activity (Proteus vulgaris [22]): inactive; Activity (Pichia membranifaciens): inactive; Activity (Salmonella paratyphi [23]): inactive
